# Data: patent publication US8314123B2, “5, 6, or 7-substituted -3-(hetero) arylisoquinolinamine derivatives and therapeutic use thereof” (Rexahn Pharmaceuticals, Inc., priority 2006, dated 2012)
# Tests used:
# Format in all cases: cell-based
# PANC-1 (pancreas) = assay: In vitro cell proliferation assay (SRB), PANC-1; conditions: Homo sapiens, SRB method, 96 hours, read-out: Inhibition of cell growth (IC50, μM) PANC-1
# Method: (§1) Cancer cell lines to determine the effect of 5, 6, or 7-substituted-3-(hetero)arylisoquinolinamine compounds were obtained from the following sources: Human MDA-MB-231 (breast), PC3 (prostate), HCT-15 (colon), HCT116 (colon), OVCAR-3 (ovary), Caki-1 (kidney), PANC-1 (pancreas), SNB-19 (glioblastoma) and SK-MEL-28 (melanoma) from the American Type Culture Collection (ATCC) (Manassas, Va.). PC3, OVCAR-3, SK-MEL-28 and SNB-19 were grown in RPMI1640 medium (Invitrogen, Carlsbad, Calif.) supplemented with 10% fetal bovine serum (“FBS”), 1 mM sodium pyruvate, 10 mM HEPES and 100 U/ml penicillin and 100 μg/ml streptomycin (“P/S”). MDA-MB-231, Caki-1, HCT-15 (colon) and PANC-1 cells were maintained in Dulbecco's modified Eagle's medium (“DMEM”, Invitrogen) supplemented with 10% FBS, P/S and 10 mM HEPES. HCT116 cells were maintained in DMEM supplemented with 10% FBS, P/S and 10 mM HEPES for in vitro cell proliferation assay and in RPMI1640 medium supplemented with 10% FBS, 1 mM sodium pyruvate, 10 mM HEPES and P/S for in vitro cell cycle analysis. All cells were incubated at 37° C. under humidified 5% CO2.
# (§2) The growth inhibition of the 5, 6, or 7-substituted-3-(hetero)arylisoquinolinamine derivatives against a variety of human tumor cells was evaluated to study the relative importance of particular substituent groups on the compounds. The 5, 6, or 7-substituted-3-(hetero)arylisoquinolinamine derivatives, prepared as described above, were tested with DMSO as a control.
# (§3) The growth inhibition assay of representative 5, 6, or 7-substituted-3-(hetero)arylisoquinolinamine derivatives against human tumor cell lines was performed using the Sulforhodamine B (“SRB”) method (Skehan et al., J. National Cancer Institute, 82: 1107-1112 (1990)). Briefly, exponentially growing tumor cells were seeded into a 96-well plate at a density of 2-3×10^3 cells/well and treated with 5, 6, or 7-substituted-3-(hetero)arylisoquinolinamine compounds the next day. Triplicate wells were used for each treatment. The cells were incubated with the various compounds for 96 hours at 37° C. in a humidified 5% CO2 atmosphere. After 96-hour incubation, cells were fixed with 10% trichloroacetic acid (“TCA”), incubated for 1 hour at 4° C., and washed 3 times with tap water. Subsequently, cells were stained with 0.4% sulforhodamine B in 1% acetic acid for 30 minutes, washed 4 times with 1% acetic acid, and air-dried again. After 5 minutes agitation in 10 mM Tris solution, the absorbance of each well was measured at 530 nm using Benchmark Plus Microplate reader (Bio-Rad Laboratories, Hercules, Calif.).
# (§4) To translate the OD530 values into the number of live cells in each well, the OD530 values were compared to those on standard OD530-versus-cell number curves generated for each cell line. The percent survival was calculated using the formula: % Survival=live cell number [test]/live cell number [control]×100
# (§5) The IC50 values were calculated by non-linear regression analysis.
# HCT116 (colon) = assay: In vitro cell proliferation assay (SRB), HCT116; conditions: Homo sapiens, HCT-116; SRB method, 96 hours; Table 3; read-out: Inhibition of cell growth (IC50, μM) HCT116
# Method: as §1, §2, §3, §4, §5
# MDA-MB-231 (breast) = assay: In vitro cell proliferation assay (SRB), MDA-MB-231; conditions: Homo sapiens, SRB method, 96 hours, read-out: Inhibition of cell growth (IC50, μM) MDA-MB-231
# Method: as §1, §2, §3, §4, §5
# PC3 (prostate) = assay: In vitro cell proliferation assay (SRB), PC3; conditions: Homo sapiens; SRB method, 96 hours; read-out: Inhibition of cell growth (IC50, μM) PC3
# Method: as §1, §2, §3, §4, §5
# Caki-1 (kidney) = assay: In vitro cell proliferation assay (SRB), Caki-1; conditions: Homo sapiens, SRB method, 96 hours, read-out: Inhibition of cell growth (IC50, μM) Caki-1
# Method: as §1, §2, §3, §4, §5
# SNB-19 (glioblastoma) = assay: In vitro cell proliferation assay (SRB), SNB19; conditions: Homo sapiens, SRB method, 96 hours, read-out: Inhibition of cell growth (IC50, μM) SNB19
# Method: as §1, §2, §3, §4, §5
# OVCAR-3 (ovary) = assay: In vitro cell proliferation assay (SRB), OVCAR3; conditions: Homo sapiens, SRB method, 96 hours, read-out: Inhibition of cell growth (IC50, μM) OVCAR3
# Method: as §1, §2, §3, §4, §5
# SK-MEL-28 (melanoma) = assay: In vitro cell proliferation assay (SRB), SK-MEL-28; conditions: Homo sapiens, SRB method, 96 hours, read-out: Inhibition of cell growth (IC50, μM) SK-MEL-28
# Method: as §1, §2, §3, §4, §5
# human cancer cell lines = assay: Growth inhibition against the panel of human tumor cell lines (SRB), overall statements; conditions: Table 3 cell lines
# Method: as §1, §2, §3, §4, §5
# Using QSAR and medicinal chemistry techniques, a large number of compounds, including the compounds shown in Table 1-2 above, were synthesized. The synthesized compounds were screened against at least four cancer cell lines, PANC-1, MDA-MB-231, HCT116 and Caki-1, at approximately 1 μM concentration. Compounds showing activity in at least one of these cell lines were selected for further screening. From these compounds, thirty compounds were selected for further evaluation as broad-spectrum anti-proliferative agents as shown in the following Table 3.
Structure (SMILES),IC50 (PANC-1 (pancreas)) [µM],IC50 (HCT116 (colon)) [µM],IC50 (MDA-MB-231 (breast)) [µM],IC50 (PC3 (prostate)) [µM],IC50 (Caki-1 (kidney)) [µM],IC50 (SNB-19 (glioblastoma)) [µM],IC50 (OVCAR-3 (ovary)) [µM],IC50 (SK-MEL-28 (melanoma)) [µM],activity in growth inhibition of human cancer cell compared to Compound 23 (human cancer cell lines)
"Cc1ccc(Cl)cc1-c1cc2ccc(Cl)cc2c(N)n1 [Compound 10, 7-chloro-3-(5-chloro-2-methylphenyl)isoquinolin-1-amine]",0.17,0.14,0.11,0.26,0.15,0.19,0.071,0.14,equal or better activity
"COc1ccc2c(N)nc(-c3ccccc3)cc2c1 [Compound 11, 6-methoxy-3-phenylisoquinolin-1-amine]",0.65,0.45,0.34,0.77,0.47,0.63,0.27,0.46,
"COc1ccc(-c2cc3ccc(N(C)C)cc3c(N)n2)cc1OC.Cl [Compound 15, 3-(3,4-Dimethoxyphenyl)-N^7,N^7-dimethylisoquinoline-1,7-diamine hydrochloride]",0.19,0.18,0.15,0.23,0.17,0.25,0.14,0.33,equal or better activity
"COc1ccccc1-c1cc2cc(C)ccc2c(N)n1 [Compound 24, 3-(2-Methoxyphenyl)-6-methylisoquinolin-1-amine]",0.93,0.67,0.44,> 3,0.35,1.13,0.49,0.8,
"COc1ccc(-c2cc3cc(C)ccc3c(N)n2)cc1 [Compound 26, 3-(4-Methoxyphenyl)-6-methylisoquinolin-1-amine]",2.27,1.36,0.93,2.98,0.75,2.23,0.79,1.8,
"COc1ccc(-c2cc3cc(C)ccc3c(N)n2)cc1OC [Compound 27, 3-(3,4-Dimethoxyphenyl)-6-methylisoquinolin-1-amine]",1.75,0.85,0.66,2.69,0.51,2.15,0.57,1.41,
"COc1cc(OC)cc(-c2cc3cc(C)ccc3c(N)n2)c1 [Compound 30, 3-(3,5-Dimethoxyphenyl)-6-methylisoquinolin-1-amine]",0.38,0.24,0.18,0.43,0.16,0.47,0.18,0.41,
"Cc1ccc2c(N)nc(-c3ccccc3F)cc2c1 [Compound 33, 3-(2-Fluorophenyl)-6-methylisoquinolin-1-amine]",1.59,0.7,0.55,1.84,0.46,1.51,0.57,1.07,
"Cc1cccc(-c2cc3cc(C)ccc3c(N)n2)c1 [Compound 35, 6-Methyl-3-m-tolylisoquinolin-1-amine]",1.28,0.59,0.57,1.19,0.69,0.75,0.47,0.72,
"COc1ccccc1-c1cc2ccc(C)cc2c(N)n1 [Compound 37, 3-(2-Methoxyphenyl)-7-methylisoquinolin-1-amine]",0.68,0.47,0.32,1.01,0.22,0.78,0.51,0.67,
"COc1cccc(-c2cc3ccc(C)cc3c(N)n2)c1 [Compound 38, 3-(3-Methoxyphenyl)-7-methylisoquinolin-1-amine]",0.47,0.21,0.17,0.42,0.14,0.48,0.24,0.41,
"Cc1ccc2cc(-c3ccccc3F)nc(N)c2c1 [Compound 41, 3-(2-Fluorophenyl)-7-methylisoquinolin-1-amine]",2.14,1.22,0.72,2.76,0.59,2.2,0.91,1.62,
"Cc1cccc(-c2cc3ccc(C)cc3c(N)n2)c1 [Compound 49, 7-Methyl-3-m-tolylisoquinolin-1-amine]",0.69,0.28,0.21,0.71,0.44,0.53,0.29,0.5,
"COc1cc2cc(-c3ccccc3)nc(N)c2cc1OC [Compound 51, 6,7-Dimethoxy-3-phenylisoquinolin-1-amine]",0.67,0.52,0.44,0.58,0.59,0.71,0.27,0.75,
"COc1cc2cc(-c3c(C)cccc3C)nc(N)c2cc1OC [Compound 53, 6,7-Dimethoxy-3-(2,6-dimethylphenyl)isoquinolin-1-amine]",0.54,0.79,0.25,0.68,0.53,0.42,0.16,0.63,
"COc1cc2cc(-c3cccc(C)c3)nc(N)c2cc1OC [Compound 54, 6,7-Dimethoxy-3-m-tolylisoquinolin-1-amine]",2.27,2.32,0.79,2.5,1.78,1.56,0.58,1.12,
"COc1cc(OC)cc(-c2cc3cc(OC)c(OC)cc3c(N)n2)c1 [Compound 55, 6,7-Dimethoxy-3-(3,5-dimethoxyphenyl)isoquinolin-1-amine]",0.7,0.77,0.4,0.72,0.54,0.4,0.19,0.69,
"COc1cc2cc(-c3ccccc3C)nc(N)c2cc1OC [Compound 56, 6,7-Dimethoxy-3-o-tolylisoquinolin-1-amine]",0.83,0.78,0.54,1.25,0.67,0.56,0.38,0.91,
